Patent US5840684A, “Glycopeptide antibiotic derivatives” (Eli Lilly and Company, priority 1995, dated 1998)
In brackets after ≈: the same amount, converted by molar mass.

How the values were obtained:
[1] = tested on: Staphylococcus aureus S13E; type: cell-based
Method: (§1) The MIC's were determined using a standard broth micro-dilution assay.

[2] = tested on: Staphylococcus aureus SA1199B; type: cell-based
Method: as §1

[3] = tested on: Entercoccus faecium 180-1; experiment: broth micro-dilution MIC; type: cell-based
Method: as §1

[4] = tested on: Entercoccus faecium 276; experiment: broth micro-dilution MIC; type: cell-based
Method: as §1

[5] = tested on: Staphylococcus aureus 446; experiment: broth micro-dilution MIC; type: cell-based
Method: as §1

[6] = tested on: Staphylococcus aureus 447; experiment: broth micro-dilution MIC; type: cell-based
Method: as §1

[7] = tested on: Staphylococcus aureus 489; experiment: broth micro-dilution MIC; type: cell-based
Method: as §1

[8] = tested on: Staphylococcus aureus 491; experiment: broth micro-dilution MIC; type: cell-based
Method: as §1

[9] = tested on: Staphylococcus aureus SA1199A; experiment: broth micro-dilution MIC; type: cell-based
Method: as §1

[10] = tested on: Staphylococcus aureus SA1199; experiment: broth micro-dilution MIC; type: cell-based
Method: as §1

[11] = tested on: Staphylococcus aureus X400; experiment: broth micro-dilution MIC; type: cell-based
Method: as §1

[12] = tested on: Staphylococcus aureus X778; experiment: broth micro-dilution MIC; type: cell-based
Method: as §1

[13] = tested on: Streptococcus pyogenes C203; experiment: broth micro-dilution MIC; type: cell-based
Method: as §1

[14] = tested on: Entercoccus faecium 180; experiment: broth micro-dilution MIC; type: cell-based; details: Entercoccus faecium 180
Method: (§2) The formula I compounds have in vitro and in vivo activity against Gram-positive pathogenic bacteria. The MIC's were determined using a standard broth micro-dilution assay.

[15] = tested on: Entercoccus faecium 2041; experiment: broth micro-dilution MIC; type: cell-based; details: Entercoccus faecium 2041
Method: as §2

[16] = tested on: Enterococcus gallinarum 245; experiment: broth micro-dilution MIC; type: cell-based; details: Enterococcus gallinarum 245
Method: as §2

[17] = tested on: Escherichia coli EC14; experiment: broth micro-dilution MIC; type: cell-based
Method: as §2

[18] = tested on: Staphylococcus epidermidis 270; experiment: broth micro-dilution MIC; type: cell-based
Method: as §2

[19] = tested on: Staphylococcus haemolyticus 105; experiment: broth micro-dilution MIC; type: cell-based
Method: as §2

[20] = tested on: Staphylococcus haemolyticus 415; experiment: broth micro-dilution MIC; type: cell-based
Method: as §2

[21] = tested on: Streptococcus pneumoniae P1; experiment: broth micro-dilution MIC; type: cell-based
Method: as §2

[22] = tested on: vancomycin-resistant enterococci; experiment: broth micro-dilution, mean geometric MIC; type: cell-based, Enterococcus faecium and Enterococcus faecalis; details: enterococci, 24-hour incubation
[23] = tested on: vancomycin-susceptible enterococci; experiment: broth micro-dilution, mean geometric MIC; type: cell-based, Enterococcus faecium and Enterococcus faecalis; details: enterococci, 24-hour incubation
[24] = tested on: Haemophilus influenzae RD; experiment: broth micro-dilution MIC; type: cell-based; details: Haemophilus influenzae RD
Method: as §2

SMILES	MIC [2] [µg/mL]	MIC [3] [µg/mL]	MIC [4] [µg/mL]	MIC [5] [µg/mL]	MIC [6] [µg/mL]	MIC [7] [µg/mL]	MIC [8] [µg/mL]	MIC [9] [µg/mL]	MIC [10] [µg/mL]	MIC [11] [µg/mL]	MIC [12] [µg/mL]	MIC [13] [µg/mL]	MIC [14] [µg/mL]	MIC [16] [µg/mL]	MIC [18] [µg/mL]	MIC [19] [µg/mL]	MIC [20] [µg/mL]	MIC [21] [µg/mL]	mean geometric MIC, Vancomycin Resistant Strains [22] [µg/mL]	mean geometric MIC, Vancomycin Sensitive Strains [23] [µg/mL]	other results
CNC(CC(C)C)C(=O)NC1C(=O)NC(CC(N)=O)C(=O)NC2C(=O)NC3C(=O)NC(C(=O)NC(C(=O)O)c4cc(O)cc(O)c4-c4cc3ccc4O)C(OC3CC(C)(N)C(O)C(C)O3)c3ccc(c(Cl)c3)Oc3cc2cc(c3OC2OC(CO)C(O)C(O)C2OC2CC(C)(NCC3CCCCC3)C(O)C(C)O2)Oc2ccc(cc2Cl)C1O (stereo not drawn) [Compound 161]	0.25 (≈ 0.148 µM)	≤ 0.06	0.125 (≈ 0.074 µM)	0.5 (≈ 0.296 µM)	1 (≈ 0.592 µM)	≤ 0.06	0.5 (≈ 0.296 µM)	≤ 0.06	0.25 (≈ 0.148 µM)	0.5 (≈ 0.296 µM)	0.5 (≈ 0.296 µM)	≤ 0.06	2 (≈ 1.18 µM)	8 (≈ 4.74 µM)	1 (≈ 0.592 µM)	4 (≈ 2.37 µM)	8 (≈ 4.74 µM)	≤ 0.06	23	0.44	MIC [1]: 0.125 µg/mL (≈ 0.074 µM); MIC [15]: ≤ 0.06 µg/mL; MIC [17]: > 64 µg/mL
CNC(CC(C)C)C(=O)NC1C(=O)NC(CC(N)=O)C(=O)NC2C(=O)NC3C(=O)NC(C(=O)NC(C(=O)O)c4cc(O)cc(O)c4-c4cc3ccc4O)C(OC3CC(C)(N)C(O)C(C)O3)c3ccc(c(Cl)c3)Oc3cc2cc(c3OC2OC(CO)C(O)C(O)C2OC2CC(C)(NCc3c(C)c(C)c(C)c(C)c3C)C(O)C(C)O2)Oc2ccc(cc2Cl)C1O (stereo not drawn) [Compound 73]	≤ 0.06	≤ 0.06	–	–	–	–	–	–	0.5 (≈ 0.285 µM)	0.5 (≈ 0.285 µM)	1 (≈ 0.571 µM)	≤ 0.06	0.5 (≈ 0.285 µM)	2 (≈ 1.14 µM)	–	0.5 (≈ 0.285 µM)	2 (≈ 1.14 µM)	≤ 0.06	11	–	MIC [17]: > 64 µg/mL
CNC(CC(C)C)C(=O)NC1C(=O)NC(CC(N)=O)C(=O)NC2C(=O)NC3C(=O)NC(C(=O)NC(C(=O)O)c4cc(O)cc(O)c4-c4cc3ccc4O)C(OC3CC(C)(N)C(O)C(C)O3)c3ccc(c(Cl)c3)Oc3cc2cc(c3OC2OC(CO)C(O)C(O)C2OC2CC(C)(NCc3ccc([N+](=O)[O-])cc3)C(O)C(C)O2)Oc2ccc(cc2Cl)C1O (stereo not drawn) [Compound 78]	≤ 0.06	≤ 0.06	0.125 (≈ 0.0724 µM)	2 (≈ 1.16 µM)	≤ 0.06	≤ 0.06	0.25 (≈ 0.145 µM)	≤ 0.06	0.125 (≈ 0.0724 µM)	≤ 0.06	≤ 0.06	≤ 0.06	1 (≈ 0.579 µM)	0.125 (≈ 0.0724 µM)	0.5 (≈ 0.289 µM)	2 (≈ 1.16 µM)	16 (≈ 9.26 µM)	≤ 0.06	16	0.76	MIC [15]: ≤ 0.06 µg/mL; MIC [17]: > 64 µg/mL
CNC(CC(C)C)C(=O)NC1C(=O)NC(CC(N)=O)C(=O)NC2C(=O)NC3C(=O)NC(C(=O)NC(C(=O)O)c4cc(O)cc(O)c4-c4cc3ccc4O)C(OC3CC(C)(N)C(O)C(C)O3)c3ccc(c(Cl)c3)Oc3cc2cc(c3OC2OC(CO)C(O)C(O)C2OC2CC(C)(NCc3c4ccccc4c(Cl)c4ccccc34)C(O)C(C)O2)Oc2ccc(cc2Cl)C1O (stereo not drawn) [Compound 18]	2 (≈ 1.1 µM)	≤ 0.06	1 (≈ 0.55 µM)	2 (≈ 1.1 µM)	8 (≈ 4.4 µM)	1 (≈ 0.55 µM)	2 (≈ 1.1 µM)	≤ 0.06	–	1 (≈ 0.55 µM)	0.5 (≈ 0.275 µM)	≤ 0.06	2 (≈ 1.1 µM)	1 (≈ 0.55 µM)	8 (≈ 4.4 µM)	16 (≈ 8.81 µM)	8 (≈ 4.4 µM)	≤ 0.06	6.7	0.38	MIC [1]: 1 µg/mL (≈ 0.55 µM); MIC [15]: 0.25 µg/mL (≈ 0.138 µM); MIC [17]: > 64 µg/mL; MIC [24]: 16 µg/mL (≈ 8.81 µM)
CNC(CC(C)C)C(=O)NC1C(=O)NC(CC(N)=O)C(=O)NC2C(=O)NC3C(=O)NC(C(=O)NC(C(=O)O)c4cc(O)cc(O)c4-c4cc3ccc4O)C(OC3CC(C)(N)C(O)C(C)O3)c3ccc(c(Cl)c3)Oc3cc2cc(c3OC2OC(CO)C(O)C(O)C2OC2CC(C)(NCc3ccccn3)C(O)C(C)O2)Oc2ccc(cc2Cl)C1O (stereo not drawn) [Compound 31]	–	≤ 0.06	–	0.5 (≈ 0.297 µM)	0.5 (≈ 0.297 µM)	≤ 0.06	0.5 (≈ 0.297 µM)	–	–	–	–	–	4 (≈ 2.38 µM)	–	1 (≈ 0.594 µM)	4 (≈ 2.38 µM)	–	–	9.5	1.2	MIC [17]: > 64 µg/mL; MIC [24]: > 64 µg/mL
CNC(CC(C)C)C(=O)NC1C(=O)NC(CC(N)=O)C(=O)NC2C(=O)NC3C(=O)NC(C(=O)NC(C(=O)O)c4cc(O)cc(O)c4-c4cc3ccc4O)C(OC3CC(C)(N)C(O)C(C)O3)c3ccc(c(Cl)c3)Oc3cc2cc(c3OC2OC(CO)C(O)C(O)C2OC2CC(C)(NCCCCc3ccc(OC)cc3)C(O)C(C)O2)Oc2ccc(cc2Cl)C1O (stereo not drawn) [Compound 172]	≤ 0.06	≤ 0.06	0.125 (≈ 0.0712 µM)	4 (≈ 2.28 µM)	0.5 (≈ 0.285 µM)	0.5 (≈ 0.285 µM)	0.5 (≈ 0.285 µM)	≤ 0.06	1 (≈ 0.57 µM)	0.5 (≈ 0.285 µM)	2 (≈ 1.14 µM)	≤ 0.06	0.5 (≈ 0.285 µM)	2 (≈ 1.14 µM)	0.5 (≈ 0.285 µM)	0.25 (≈ 0.142 µM)	2 (≈ 1.14 µM)	≤ 0.06	3.4	0.13	MIC [1]: ≤ 0.06 µg/mL; MIC [15]: ≤ 0.06 µg/mL; MIC [24]: 32 µg/mL (≈ 18.2 µM)
CNC(CC(C)C)C(=O)NC1C(=O)NC(CC(N)=O)C(=O)NC2C(=O)NC3C(=O)NC(C(=O)NC(C(=O)O)c4cc(O)cc(O)c4-c4cc3ccc4O)C(OC3CC(C)(NCc4ccc5c(c4)Cc4ccccc4-5)C(O)C(C)O3)c3ccc(c(Cl)c3)Oc3cc2cc(c3OC2OC(CO)C(O)C(O)C2OC2CC(C)(NCc3ccc4c(c3)Cc3ccccc3-4)C(O)C(C)O2)Oc2ccc(cc2Cl)C1O (stereo not drawn) [Compound 279]	≤ 0.06	≤ 0.06	0.125 (≈ 0.0641 µM)	0.5 (≈ 0.257 µM)	1 (≈ 0.513 µM)	–	0.25 (≈ 0.128 µM)	≤ 0.06	0.5 (≈ 0.257 µM)	0.25 (≈ 0.128 µM)	0.25 (≈ 0.128 µM)	≤ 0.06	≤ 0.06	2 (≈ 1.03 µM)	1 (≈ 0.513 µM)	4 (≈ 2.05 µM)	2 (≈ 1.03 µM)	≤ 0.06	2.4	0.11	MIC [1]: 0.25 µg/mL (≈ 0.128 µM); MIC [15]: ≤ 0.06 µg/mL; MIC [17]: > 64 µg/mL; MIC [24]: > 64 µg/mL
CNC(CC(C)C)C(=O)NC1C(=O)NC(CC(N)=O)C(=O)NC2C(=O)NC3C(=O)NC(C(=O)NC(C(=O)O)c4cc(O)cc(O)c4-c4cc3ccc4O)C(OC3CC(C)(N)C(O)C(C)O3)c3ccc(c(Cl)c3)Oc3cc2cc(c3OC2OC(CO)C(O)C(O)C2OC2CC(C)(NCCCCCCCCBr)C(O)C(C)O2)Oc2ccc(cc2Cl)C1O (stereo not drawn) [Compound 198]	0.5 (≈ 0.28 µM)	≤ 0.06	0.25 (≈ 0.14 µM)	1 (≈ 0.561 µM)	0.125 (≈ 0.0701 µM)	0.125 (≈ 0.0701 µM)	≤ 0.06	≤ 0.06	0.5 (≈ 0.28 µM)	0.5 (≈ 0.28 µM)	0.125 (≈ 0.0701 µM)	≤ 0.06	≤ 0.06	1 (≈ 0.561 µM)	0.25 (≈ 0.14 µM)	0.5 (≈ 0.28 µM)	1 (≈ 0.561 µM)	≤ 0.06	3.4	0.062	MIC [1]: 0.125 µg/mL (≈ 0.0701 µM); MIC [15]: ≤ 0.06 µg/mL; MIC [24]: 32 µg/mL (≈ 17.9 µM)
